# Assay results as given in PubChem BioAssay (NCI).
# Several values for one entry are separate records, joined by “and”; a condition that tells them apart may be missing. Equal values may be shown once.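 Step 1: Grow cells in 96-well plates. Step 2: Expose to compound for 48 hours at 5 concentrations. Step 3: Interpolate endpoints linearly; if unreached, use highest concentration. GI50 marks 50% less growth. Definition used: TGI = concentration required for complete inhibition of growth.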
# Tests used:
# Assay in all cases: NCI anticancer screen, dose series, 48 h
# [1] = system: SK-MEL-28 melanoma
# [2] = system: U251 CNS
# [3] = system: HCT-116 colon
# [4] = system: NCI/ADR-RES ovarian
# [5] = system: PC-3 prostate
# [6] = system: CCRF-CEM leukemia
# [7] = system: SK-MEL-2 melanoma
# [8] = system: K-562 leukemia
# [9] = system: LOX IMVI melanoma
# [10] = system: HOP-92 NSCLC
SMILES,TGI [1],TGI [2],TGI [3],TGI [4],TGI [5],TGI [6] [µM],TGI [7],TGI [8] [µM],TGI [9],TGI [10],GI50 [6]
CC(O)c1nc(C#N)c(N)o1 (stereo unspecified),> 100 µM,> 100 µM,> 100 µM,> 100 µM,> 100 µM,> 100,> 100 µM,> 100,> 100 µM,> 100 µM,–
NC(=O)[C@H](Cc1ccc(O)cc1)Nc1c(O)c2c(c(O)c1Cl)C(=O)C=CC2=O,4.64 µM,> 8.11 µM,3.27 µM,> 7.25 µM,5.85 µM,1.04,> 10 µM,5.37,> 4.65 µM,4.72 µM,–
Cc1nc2c(Br)cc(Br)cc2c(=O)n1-c1ccccc1NC1OC(CO)C(O)C(O)C1O (stereo unspecified),> 100 µM,> 100 µM,> 100 µM,> 100 µM,> 100 µM,> 100,> 100 µM,> 100,> 100 µM,> 100 µM,–
CC(C)(C)C(=O)Nc1c(C=O)ccc2[nH]cnc12,> 100 µM,> 100 µM,> 100 µM,> 100 µM,> 100 µM,> 100,> 100 µM,> 100,> 100 µM,> 100 µM,–
O=CCCCCCOCc1ccccc1,> 100 µM,> 100 µM,> 67.9 µM,> 100 µM,> 100 µM,> 69.9,> 100 µM,> 31.7,34.9 µM,> 100 µM,–
Clc1ccc2c(NCCCCCCNc3ccnc4cc(Cl)ccc34)ccnc2c1,9.78 µM,5.82 µM,3.85 µM,27.9 µM,18.1 µM,7.53,12.7 µM,4.98,3.35 µM,5.8 µM,–
O=[N+]([O-])c1ccc(-n2nc3ccc4nonc4c3n2)cc1,> 100 µM,> 100 µM,> 100 µM,> 100 µM,> 100 µM,> 100,> 100 µM,> 100,> 100 µM,65 µM,–
COc1cc(CCNC2=CC(=O)c3nc[nH]c3C2=O)ccc1O,60.4 µM,63.3 µM,48 µM,> 100 µM,> 100 µM,> 100,52.1 µM,> 100,45.7 µM,73.3 µM,–
CCOC(=O)c1c(-c2ccc(OC)cc2)ccn1C,> 10 µM,> 10 µM,> 10 µM,> 10 µM,> 9.68 µM,> 10,> 10 µM,> 10,> 10 µM,> 10 µM,–
C=C(NC(=O)C(=C)NC(=O)c1ccc2c(n1)-c1coc(n1)C(=C)NC(=O)C(=C)NC(=O)c1nc(oc1C)C(=C)NC(=O)C(C(C)(C)O)NC(=O)C(=C)NC(=O)c1coc(n1)/C(=C/C)NC(=O)[C@H]([C@@H](C)O)NC(=O)c1csc-2n1)C(N)=O (stereo partly specified),> 87.5 µM,> 87.5 µM,> 87.5 µM,> 87.5 µM,> 87.5 µM,> 87.5,> 87.5 µM,> 87.5,> 87.5 µM,> 87.5 µM,–
CCN1CC2(C)CCC(OC)C34C5CC6CCC(O)(C5C(=O)O6)C(C(O)C23)C14 (stereo unspecified),> 100 µM,> 100 µM,> 100 µM,> 100 µM,> 100 µM,> 100,> 100 µM,> 100,> 100 µM,> 100 µM,–
COc1cccc2c1C(=O)c1c(O)c3c(c(O)c1C2=O)C[C@@](O)(C(C)=O)CC3OC1CC(OC2CC(N)C(O)C(C)O2)C(O)C(C)O1 (stereo partly specified),> 100 µM,> 87.6 µM,> 100 µM,> 100 µM,> 100 µM,44,> 100 µM,> 100,> 100 µM,> 100 µM,–
CCc1nc(N)c2nc(-c3cccs3)oc2n1,> 100 µM,> 100 µM,> 100 µM,> 100 µM,> 100 µM,> 100,> 100 µM,> 100,> 100 µM,> 100 µM,–
CCCCCC[C@H]([C@H](C)O)n1cnc2c(N)ncnc21,> 100 µM,> 100 µM,> 100 µM,> 100 µM,> 100 µM,> 100,> 100 µM,> 100,> 100 µM,> 100 µM,–
Clc1ccc2c(c1)N(CCCN1CCCC13CCCCC3)c1ccccc1S2,30.3 µM,23.6 µM,30.7 µM,44.5 µM,20.6 µM,28.3,22.1 µM,21.6,26.5 µM,38.2 µM,–
CC(=O)NC1C(OCc2ccccc2)OC(CO)C(O)C1OC(C)C(=O)N[C@@H](C)C(=O)N[C@H](CCC(=O)NCCNCCNc1c2ccccc2nc2cccc([N+](=O)[O-])c12)C(N)=O (stereo partly specified),0.723 µM,3.41 µM,0.512 µM,10.6 µM,0.891 µM,> 100,0.138 µM,> 100,0.534 µM,0.169 µM,–
CC(C)(CO[C@H]1C[C@H]2CC[C@@]1(C)C2(C)C)[N+](=O)[O-],34.9 µM,31.5 µM,29.1 µM,90.3 µM,54.4 µM,> 100,31.3 µM,35,35.1 µM,43.4 µM,–
COC(=O)c1c2c(cc3c1CC1(Cc4cc5c(c(C=O)c4C1)CCC5)C3)CCC2 (stereo unspecified),> 100 µM,57.3 µM,60 µM,> 100 µM,> 100 µM,56.7,72 µM,> 100,56.5 µM,60.7 µM,–
COc1cc2c(cc1OC)C(=O)N(c1ccc(OCCN3CCCC3)cc1)C2,> 100 µM,> 100 µM,> 100 µM,> 100 µM,> 100 µM,> 100,> 100 µM,> 100,> 100 µM,> 100 µM,–

SMILES,TGI [1],TGI [2],TGI [3],TGI [4],TGI [5],TGI [6] [µM],TGI [7],TGI [8] [µM],TGI [9],TGI [10],GI50 [6]
CCN(CC)C(=S)SC(C(=O)Nc1nnc(-c2ccc(Cl)cc2)o1)c1ccccc1 (stereo unspecified),33.5 µM,65.3 µM,13.5 µM,30.5 µM,28.3 µM,9.82,> 100 µM,42.4,40.2 µM,51.5 µM,–
Cc1cn(CCCCCCOC(=O)NC(CCCNC(N)=O)C(=O)O)c(=O)[nH]c1=O (stereo unspecified),> 100 µM,> 100 µM,> 100 µM,> 100 µM,> 100 µM,> 100,> 100 µM,> 100,> 100 µM,> 100 µM,–
O=C(CNc1ccccc1C(=O)O)Nn1cnc2ccc(S(=O)(=O)Nc3ccccc3C(=O)O)cc2c1=O,> 100 µM,> 100 µM,> 100 µM,> 100 µM,> 100 µM,> 100,> 100 µM,> 100,> 100 µM,> 100 µM,–
Cn1/c(=N\N=C2\C=C3CCCCC3(C)CC2)sc2ccccc21 (stereo unspecified),> 100 µM,> 100 µM,> 100 µM,> 100 µM,> 100 µM,> 100,> 100 µM,> 100,> 100 µM,> 100 µM,–
COC(=O)c1sc(=O)sc1SCc1cccc(CSc2sc(=O)sc2C(=O)OC)c1,> 100 µM,34.3 µM,> 100 µM,> 100 µM,> 100 µM,> 100,> 100 µM,> 100,> 100 µM,95.6 µM,–
Cn1c(=O)c2c(nc3[nH]c(=O)c(Br)cn32)n(C)c1=O,> 100 µM,> 100 µM,> 100 µM,> 100 µM,> 100 µM,> 100,> 100 µM,> 100,> 100 µM,> 100 µM,–
O=C(O)c1c(CC(Cc2ccc3c(c2)CCC3)C(=O)O)ccc2c1CCC2 (stereo unspecified),> 100 µM,> 100 µM,> 100 µM,> 100 µM,> 100 µM,> 100,> 100 µM,> 100,> 100 µM,> 100 µM,–
N#Cc1c(-c2ccc([N+](=O)[O-])cc2)c(C#N)c(=O)n(NS(=O)(=O)c2ccccc2)c1S,> 100 µM,> 100 µM,39.8 µM,> 100 µM,> 100 µM,49.3,60.8 µM,77.4,38 µM,> 100 µM,–
COC(=O)C1OC(O[C@H]2CC[C@]3(C)[C@H]4CC=C5[C@@H]6CC(C)(C)CC[C@]6(C(=O)OC6OCC(O)C(O)C6OC6OC(C)C(OC7OCC(O)C(O)C7O)C(O)C6O)[C@H](O)C[C@@]5(C)[C@]4(C)CC[C@H]3C2(C)C)C(O)C(O)C1O (stereo partly specified),3.57 µM and 4.63 µM,17.7 µM and 19.8 µM,> 100 µM and 17.4 µM,22.5 µM and 12.3 µM,16.9 µM and 16.3 µM,> 100,7.83 µM and 7.96 µM,> 100,19.6 µM and 14.5 µM,5.2 µM and 8.4 µM,> 68.4 µM and 13.5 µM
COC(=N)C1(C#N)NC(c2ccsc2)C(C#N)(C#N)NC1c1ccsc1 (stereo unspecified),> 100 µM,> 100 µM,> 100 µM,> 100 µM,> 100 µM,> 100,> 100 µM,> 100,> 100 µM,> 100 µM,–
CN1CCN(C(=O)c2cn(Cc3cncn3Cc3ccc4c(c3)OCO4)cc2-c2cccc3ccccc23)CC1,63.6 µM,> 100 µM,> 100 µM,> 100 µM,> 86.3 µM,> 77.2,20.8 µM,53.5,47.8 µM,57.8 µM,–
CC(=O)CC1(CBr)Nc2ccc([N+](=O)[O-])cc2NC1=O (stereo unspecified),> 100 µM,> 100 µM,> 100 µM,> 100 µM,> 100 µM,> 100,> 100 µM,> 100,> 100 µM,> 100 µM,–
C[n+]1cccc2ccc3cccnc3c21,> 100 µM,> 100 µM,> 100 µM,> 100 µM,> 100 µM,> 100,97.1 µM,> 100,> 100 µM,> 100 µM,–
C=C1c2nc3ccccc3n2C=C(c2ccc(C)cc2)N1c1ccc(OC)cc1,> 100 µM,> 100 µM,> 100 µM,> 94.8 µM,> 100 µM,> 100,> 100 µM,> 100,> 100 µM,> 100 µM,–
CC(C)(C)C1CCC2c3c([nH]c4ccccc34)C3C(=O)N(c4ccc([N+](=O)[O-])cc4)C(=O)C3C2C1 (stereo unspecified),> 100 µM,38.5 µM,22.6 µM,41 µM,> 100 µM,> 100,29.3 µM,55.3,20.8 µM,17.5 µM,–
O=P1(N(CCCl)CCCl)Oc2ccc(Cl)cc2C(C(Cl)(Cl)Cl)c2cc(Cl)ccc2O1 (stereo unspecified),> 100 µM,29.2 µM,15.9 µM,> 100 µM,> 100 µM,> 100,47.3 µM,> 100,28.7 µM,40.4 µM,–
O=C(O)C(Cc1ccccc1)NCc1c(O)ccc2c(-c3ccccc3)cc(=O)oc12 (stereo unspecified),> 100 µM,> 100 µM,> 100 µM,> 100 µM,> 100 µM,> 100,> 100 µM,> 100,> 100 µM,> 100 µM,–
COP(=O)(OC)OCN(C)CC/C=C(\C)CC/C=C(\C)CCC=C(C)C,32.6 µM,37.6 µM,25.9 µM,30.5 µM,21.2 µM,51.9,28.2 µM,20.6,29.3 µM,34.8 µM,–
